In general, IC50 refers to the concentration at which inhibition is half-maximal. As a reminder, the EC50 is the concentration that produces a half-maximal response. The low end stands for higher potency in that assay, the high end for lower potency in that assay.

We go through 18 compounds from patent publication US20250011318A1 (ARCUS BIOSCIENCES, INC., priority 2023, published 2025).

One test addresses T1, Cbl-b (Homo sapiens, UniProt Q13191).
T1 construct: biotin (biotinylated)
Kind of test: Cbl-b probe displacement HTRF binding assay. The settings on record: 0.4 nM biotinylated Cbl-b, 150 nM BODIPY probe. As for the experimental part:
The affinity with which compounds of the present disclosure bind to Cbl-b was assessed using probe displacement homologous time resolved fluorescence (HTRF) assays. The assays used a BODIPY™ conjugated probe (Example 54 from WO 2020264398) and biotinylated Cbl-b. The assays were performed in assay buffer consisting of 20 mM Hepes, 150 mM NaCl, 0.01% Triton X-100, 0.5 mM TCEP, 0.01% BSA. On the day of the assay, a 20 point, 1:2 master serial dilution of each compound was prepared in DMSO to span a final concentration range of 10 μM to 0 nM. Two hundred nanoliters of diluted compound was added to each well of a 384-well plate. Fifteen microliters of biotinylated—Cbl-b resuspended in assay buffer were added to each well and the plate incubated for 60 minutes at room temperature prior to addition of 5 μL of BODIPY™ probe in assay buffer. Final assay conditions included 0.4 nM of Cbl-b and 150 nM of BODIPY™ probe. After a further 15 minutes of incubation at room temperature, 5 μl of Streptavidin-Terbium cryptate reagent at 5-fold final concentration was added to each well of the 384-well plate. Binding of a probe to Cbl-b results in an increase of HTRF signal. HTRF signal was measured by Envision plate reader, while competition of a compound of the present disclosure with probe results in a decrease of signal. Percentage maximum activity in each test well was calculated based on DMSO (maximum activity, 0% displacement) and no protein control wells (baseline activity, 100% displacement). Binding affinity was determined from a dose response curve fitted using a standard four parameter fit equation. See Table 3 for data for compounds (Cbl-b Binding (IC50)).
On the technique in general: Time-resolved FRET reads energy transfer from a long-lived donor to a nearby acceptor.

A further test concerns Jurkat cells. As to the kind of experiment: IL-2 secretion assay in CD3/CD28-activated Jurkat cells (AlphaLISA). The format is cell-based, human. The settings on record: Homo sapiens, CD3/CD28 T Cell Activator, 24 h, IL-2 AlphaLISA. On the procedure: Certain compounds were also evaluated in an IL-2 secretion assay. On the day of the assay, a 16 point, 1:2 master serial dilution of each compound was prepared in Opti-MEM to span a final concentration range of 10 μM to 300 pM. Assays were setup in CORNING® tissue culture-treated 384-well microplates containing 60 nL of each dilution. Jurkat cells grown in RPMI-1640 supplemented with 10% FBS, 1% Glutamax, and 1% Pen/Strep were collected, resuspended in Opti-MEM. 50,000 cells/well and added to the compound plates. After a short spin (1200 rpm for 1 min), the plates were incubated at 37° C. for 1 hour. The cells were activated by adding 15 μL of IMUNOCULT™ Human CD3/CD28 T Cell Activator (STEMCELL Technologies) diluted in Opti-MEM. After 24 h of incubation at 37° C., aliquots of culture supernatants were transferred to OptiPlate-384 (PerkinElmer) microplates. The level of IL-2 secretion in the supernatants was then determined using the IL-2 (human) AlphaLISA Detection Kit (PerkinElmer) according to the manufacturer's recommendations. The AlphaLISA signal was measured using an EnVision plate reader (PerkinElmer). EC50 values were determined by fitting the data to a standard 4-parameter logistic equation. See Table 3 for data for select compounds (IL-2 Secretion (EC50)).
On the technique in general: Alpha assays give light when donor and acceptor beads are brought close together.

T1 sequence (Q13191 whole entry, species assumed): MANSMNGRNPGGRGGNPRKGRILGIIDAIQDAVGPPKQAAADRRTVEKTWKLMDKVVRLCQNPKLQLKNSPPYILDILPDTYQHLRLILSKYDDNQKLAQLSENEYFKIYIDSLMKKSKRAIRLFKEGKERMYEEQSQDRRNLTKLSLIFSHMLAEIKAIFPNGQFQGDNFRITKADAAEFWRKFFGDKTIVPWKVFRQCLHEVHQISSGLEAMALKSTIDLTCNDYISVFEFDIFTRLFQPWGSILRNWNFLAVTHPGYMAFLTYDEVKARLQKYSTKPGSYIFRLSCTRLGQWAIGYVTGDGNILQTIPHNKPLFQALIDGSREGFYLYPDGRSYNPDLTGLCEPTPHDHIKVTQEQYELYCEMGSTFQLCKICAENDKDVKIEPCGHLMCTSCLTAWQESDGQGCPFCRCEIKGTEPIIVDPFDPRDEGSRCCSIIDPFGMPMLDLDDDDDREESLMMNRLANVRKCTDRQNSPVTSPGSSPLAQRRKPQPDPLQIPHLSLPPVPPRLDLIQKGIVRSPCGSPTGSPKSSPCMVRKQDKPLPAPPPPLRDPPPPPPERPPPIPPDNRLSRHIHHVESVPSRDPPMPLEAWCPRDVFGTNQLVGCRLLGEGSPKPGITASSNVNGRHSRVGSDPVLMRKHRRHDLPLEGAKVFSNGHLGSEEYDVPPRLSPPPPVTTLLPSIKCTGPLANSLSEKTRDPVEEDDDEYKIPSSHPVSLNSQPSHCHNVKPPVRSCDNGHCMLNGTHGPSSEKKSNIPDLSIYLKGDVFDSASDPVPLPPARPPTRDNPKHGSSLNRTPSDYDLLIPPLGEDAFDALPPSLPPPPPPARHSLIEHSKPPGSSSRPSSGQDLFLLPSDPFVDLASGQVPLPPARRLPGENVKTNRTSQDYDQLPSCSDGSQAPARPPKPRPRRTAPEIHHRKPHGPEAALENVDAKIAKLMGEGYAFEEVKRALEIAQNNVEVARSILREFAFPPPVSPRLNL

`CC(c1cc2c(C3CC3)cn(-c3cc(-c4ccc(C#N)cc4-c4nccn4C)cc(C4CC4)n3)c(=O)c2[nH]1)N1CCC[C@H](C)C1` (mixture of isomers) [Example 100, 4-[2-(2-{1-[(S)-3-methyl-1-piperidyl]ethyl}-4-cyclopropyl-7-oxo-1,6-dihydro-1,6-diaza-6-indenyl)-6-cyclopropyl-4-pyridyl]-3-(1-methyl-2-imidazolyl)benzonitrile] had an IC50 on Cbl-b of less than 100 nM. Moreover, the EC50 with Jurkat cells was less than 100 nM.
In turn, `CC(c1cc2c(S(C)(=O)=O)cn(-c3cc(-c4ccc(C#N)cc4-c4nccn4C)cc(C4CC4)n3)c(=O)c2[nH]1)N1CCC[C@H](C)C1` (mixture of isomers) [Example 101, 4-[2-(2-{1-[(S)-3-methyl-1-piperidyl]ethyl}-4-mesyl-7-oxo-1,6-dihydro-1,6-diaza-6-indenyl)-6-cyclopropyl-4-pyridyl]-3-(1-methyl-2-imidazolyl)benzonitrile] returned an IC50 at Cbl-b of less than 100 nM. The same compound returned a 50% effective concentration (EC50) in the test on Jurkat cells of less than 100 nM.
Consider `CC(c1cc2c(S(C)(=O)=O)cn(-c3cc(-c4ccc(C#N)cc4-c4nccn4C)cc(C4CC4)n3)c(=O)c2[nH]1)N1CCO[C@H](C)C1` (mixture of isomers) [Example 102, 4-[2-(2-{1-[(R)-2-methyl-4-morpholinyl]ethyl}-4-mesyl-7-oxo-1,6-dihydro-1,6-diaza-6-indenyl)-6-cyclopropyl-4-pyridyl]-3-(1-methyl-2-imidazolyl)benzonitrile], for which, at Cbl-b, the IC50 is less than 100 nM. The compound further yielded an EC50 in the test with Jurkat cells of less than 100 nM.
Compound `C[C@H]1CCCN(Cc2cc3c(C4CC4)cn(-c4cc(-c5ccc(C#N)cc5-c5nncn5C)cc(Cl)n4)c(=O)c3[nH]2)C1` [Example 1, 4-[2-(2-{[(S)-3-methyl-1-piperidyl]methyl}-4-cyclopropyl-7-oxo-1,6-dihydro-1,6-diaza-6-indenyl)-6-chloro-4-pyridyl]-3-(4-methyl-4H-1,2,4-triazol-3-yl)benzonitrile] had an IC50 at Cbl-b of less than 100 nM. The concentration giving a half-maximal response (EC50) in the test with Jurkat cells is less than 100 nM.
On to `C[C@H]1CCCN(Cc2cc3c(C4CC4)cn(-c4cc(-c5ccc(C#N)cc5-c5nncn5C)cc(C5CC5)n4)c(=O)c3[nH]2)C1` [Example 2, 4-[2-(2-{[(S)-3-methyl-1-piperidyl]methyl}-4-cyclopropyl-7-oxo-1,6-dihydro-1,6-diaza-6-indenyl)-6-cyclopropyl-4-pyridyl]-3-(4-methyl-4H-1,2,4-triazol-3-yl)benzonitrile], for which, on Cbl-b, the IC50 is less than 100 nM. This compound also came in with a concentration for a half-maximal effect (EC50) in the test with Jurkat cells of less than 100 nM.
Regarding `CNCCN(C)c1cc(-c2ccc(C#N)cc2-c2nncn2C)cc(-n2cc(C3CC3)c3cc(CN4CCC[C@H](C)C4)[nH]c3c2=O)n1` [Example 3, 4-(2-{N-methyl[2-(methylamino)ethyl]amino}-6-(2-{[(S)-3-methyl-1-piperidyl]methyl}-4-cyclopropyl-7-oxo-1,6-dihydro-1,6-diaza-6-indenyl)-4-pyridyl)-3-(4-methyl-4H-1,2,4-triazol-3-yl)benzonitrile], the half-maximal inhibitory concentration (IC50) at Cbl-b lay within 100 to 1000 nM. The same compound had an EC50 in the test on Jurkat cells of 1000 to 5000 nM.
In the same order, the values of `Cn1cnnc1-c1cc(C#N)ccc1-c1cc(C2CC2)nc(-n2cc(C3CC3)c3cc[nH]c3c2=O)c1` [Example 4] are 1000 to 5000 nM and more than 5000 nM.
For `COc1ccc(-c2cc(C3CC3)nc(-n3cc(C4CC4)c4cc(CN5CCC[C@H](C)C5)[nH]c4c3=O)c2)c(-c2nncn2C)c1` [Example 5, 2-{[(S)-3-Methyl-1-piperidyl]methyl}-4-cyclopropyl-6-{6-cyclopropyl-4-[4-methoxy-2-(4-methyl-4H-1,2,4-triazol-3-yl)phenyl]-2-pyridyl}-1,6-dihydro-1,6-diaza-7-indenone] the same measures were less than 100 nM and less than 100 nM.
In the same order, the values of `C[C@H]1CCCN(Cc2cc3c(C4CC4)cn(-c4cc(-c5ccc(F)cc5-c5nncn5C)cc(Cl)n4)c(=O)c3[nH]2)C1` [Example 6, 2-{1[(S)-3-Methyl-1-piperidyl]methyl}-6-{6-chloro-4-[4-fluoro-2-(4-methyl-4H-1,2,4-triazol-3-yl)phenyl]-2-pyridyl}-4-cyclopropyl-1,6-dihydro-1,6-diaza-7-indenone] are less than 100 nM and less than 100 nM.
`C[C@H]1CCCN(Cc2cc3c(C4CC4)cn(-c4cc(-c5ccc(F)cc5-c5nncn5C)cc(O)n4)c(=O)c3[nH]2)C1` [Example 7, 2-{[(S)-3-methyl-1-piperidyl]methyl}-4-cyclopropyl-6-{4-[4-fluoro-2-(4-methyl-4H-1,2,4-triazol-3-yl)phenyl]-6-hydroxy-2-pyridyl}-1,6-dihydro-1,6-diaza-7-indenone] returned a concentration for half-maximal inhibition (IC50) on Cbl-b of 100 to 1000 nM. In the test with Jurkat cells, this compound came in with an EC50 of 1000 to 5000 nM.
`C[C@H]1CCCN(Cc2cc3c(C4CC4)cn(-c4cc(-c5ccc(F)cc5-c5nncn5C)cc(C5CC5)n4)c(=O)c3[nH]2)C1` [Example 10, 2-{[(S)-3-Methyl-1-piperidyl]methyl}-4-cyclopropyl-6-{6-cyclopropyl-4-[4-fluoro-2-(4-methyl-4H-1,2,4-triazol-3-yl)phenyl]-2-pyridyl}-1,6-dihydro-1,6-diaza-7-indenone] displayed an IC50 on Cbl-b of less than 100 nM.
Same read-out and setting: in the case of `C[C@H]1CCCN(Cc2cc3c(C4CC4)cn(-c4cc(-c5ccc(C#N)cc5-c5nccn5C)cc(C5CC5)n4)c(=O)c3[nH]2)C1` [Example 13, 4-[2-(2-{[(S)-3-methyl-1-piperidyl]methyl}-4-cyclopropyl-7-oxo-1,6-dihydro-1,6-diaza-6-indenyl)-6-cyclopropyl-4-pyridyl]-3-(1-methyl-2-imidazolyl)benzonitrile] it was less than 100 nM; in that of `CO[C@@H](C)CNCc1nc2c(C(F)(F)F)cn(-c3cc(-c4ccc(F)cc4-c4ncoc4C)cc(C4CC4)n3)c(=O)c2[nH]1` [Example 49, 2-{[(S)-2-methoxypropylamino]methyl}-5-{6-cyclopropyl-4-[4-fluoro-2-(5-methyl-1,3-oxazol-4-yl)phenyl]-2-pyridyl}-7-(trifluoromethyl)-3,5-dihydro-1,3,5-triaza-4-indenone], less than 100 nM.
The same measure, in the same setting: to `COCCNCc1cc2ncn(-c3cc(-c4ccc(C#N)cc4-c4ncoc4C)cc(C4CC4)n3)c(=O)c2[nH]1` [Example 72, 4-(6-cyclopropyl-2-{2-[(2-methoxyethylamino)methyl]-7-oxo-1,6-dihydro-1,4,6-triaza-6-indenyl}-4-pyridyl)-3-(5-methyl-1,3-oxazol-4-yl)benzonitrile] belongs less than 100 nM.
Regarding `COCCNCc1cc2ncn(-c3cc(-c4ccc(F)cc4-c4ncoc4C)cc(C4CC4)n3)c(=O)c2[nH]1` [Example 78, 6-{6-cyclopropyl-4-[4-fluoro-2-(5-methyl-1,3-oxazol-4-yl)phenyl]-2-pyridyl}-2-[(2-methoxyethylamino)methyl]-1,6-dihydro-1,4,6-triaza-7-indenone], on Cbl-b, the IC50 was less than 100 nM.
`COC[C@H](C)NCc1cc2ncn(-c3cc(-c4ccc(F)cc4-c4ncoc4C)cc(C4CC4)n3)c(=O)c2[nH]1` [Example 79, 2-{[(S)-2-methoxy-1-methylethylamino]methyl}-6-{6-cyclopropyl-4-[4-fluoro-2-(5-methyl-1,3-oxazol-4-yl)phenyl]-2-pyridyl}-1,6-dihydro-1,4,6-triaza-7-indenone] had an IC50 on Cbl-b of less than 100 nM.
Still for that read-out and setting: to `CCOCCNCc1cc2ncn(-c3cc(-c4ccc(F)cc4-c4ncoc4C)cc(C4CC4)n3)c(=O)c2[nH]1` [Example 80, 6-{6-cyclopropyl-4-[4-fluoro-2-(5-methyl-1,3-oxazol-4-yl)phenyl]-2-pyridyl}-2-[(2-ethoxyethylamino)methyl]-1,6-dihydro-1,4,6-triaza-7-indenone] belongs less than 100 nM.
In the case of `CO[C@@H](C)CN(C)Cc1cc2ncn(-c3cc(-c4ccc(F)cc4-c4nc(C#N)cn4C)cc(C4CC4)n3)c(=O)c2[nH]1` [Example 113, 2-[2-[2-cyclopropyl-6-[6-[[[(2S)-2-methoxypropyl]-methylamino]methyl]-4-oxo-5H-pyrrolo[3,2-d]pyrimidin-3-yl]pyridin-4-yl]-5-fluorophenyl]-1-methyl-imidazole-4-carbonitrile], the half-maximal inhibitory concentration (IC50) on Cbl-b was less than 100 nM.
